The values that follow come from paper PMC6742641, “Design, synthesis and biological evaluation of a series of CNS penetrant HDAC inhibitors structurally derived from amyloid-β probes” (Scientific Reports, 2019).

Entries after “also recorded” stand apart in the source; their conditions may differ.

Data set [1] has as its target T1, HDAC6 (Homo sapiens, UniProt Q9UBN7).
T1 construct: purchased BPS Biosciences
T1 sequence (Q9UBN7 1-1215): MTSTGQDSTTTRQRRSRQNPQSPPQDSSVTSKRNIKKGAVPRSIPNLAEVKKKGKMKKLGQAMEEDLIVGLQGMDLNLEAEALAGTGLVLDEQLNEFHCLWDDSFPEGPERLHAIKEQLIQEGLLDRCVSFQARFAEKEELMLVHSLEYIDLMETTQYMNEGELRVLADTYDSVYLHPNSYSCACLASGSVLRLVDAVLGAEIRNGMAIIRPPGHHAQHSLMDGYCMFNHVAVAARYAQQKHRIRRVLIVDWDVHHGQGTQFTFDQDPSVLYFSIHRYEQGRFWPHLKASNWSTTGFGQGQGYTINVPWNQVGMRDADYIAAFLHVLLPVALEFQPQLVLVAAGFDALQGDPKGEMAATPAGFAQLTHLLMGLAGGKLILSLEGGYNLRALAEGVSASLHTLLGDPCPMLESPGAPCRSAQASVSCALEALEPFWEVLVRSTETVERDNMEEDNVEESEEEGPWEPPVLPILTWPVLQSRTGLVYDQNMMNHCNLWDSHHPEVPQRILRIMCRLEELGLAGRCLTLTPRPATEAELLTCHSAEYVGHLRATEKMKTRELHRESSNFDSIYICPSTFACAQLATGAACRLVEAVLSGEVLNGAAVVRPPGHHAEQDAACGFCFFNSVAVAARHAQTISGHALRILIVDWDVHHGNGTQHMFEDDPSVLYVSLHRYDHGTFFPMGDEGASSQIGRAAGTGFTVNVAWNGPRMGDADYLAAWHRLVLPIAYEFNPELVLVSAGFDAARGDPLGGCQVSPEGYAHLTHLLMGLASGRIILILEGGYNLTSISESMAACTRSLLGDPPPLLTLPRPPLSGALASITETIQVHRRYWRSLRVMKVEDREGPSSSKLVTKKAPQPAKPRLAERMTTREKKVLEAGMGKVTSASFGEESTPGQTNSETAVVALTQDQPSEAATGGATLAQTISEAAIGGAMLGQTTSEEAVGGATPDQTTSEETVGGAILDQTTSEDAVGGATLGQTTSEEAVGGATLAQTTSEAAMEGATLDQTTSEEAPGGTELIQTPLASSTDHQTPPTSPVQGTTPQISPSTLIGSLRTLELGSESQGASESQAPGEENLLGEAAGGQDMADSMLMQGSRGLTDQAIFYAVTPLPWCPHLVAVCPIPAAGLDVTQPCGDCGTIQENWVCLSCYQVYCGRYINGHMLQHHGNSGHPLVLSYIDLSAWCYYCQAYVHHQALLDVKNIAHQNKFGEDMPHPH
Kind of data set: HDAC activity assay (fluorimetric, BPS Biosciences). It is filed as biochemical. The following applies: class IIb in Table 4; mean ± SD (n = 2). The method, then: (§1) HDAC1, 3, 6 and 7 activity assays were performed according to the manufacturer’s protocol (BPS Biosciences). […] The HDAC assay developer was added to the mixture and incubated the plate at rt for 15 min. The fluorescence intensity was measured using a Tecan Infinite F200 Pro plate reader.

The target of data set [2] is T2, HDAC1 (Homo sapiens, UniProt Q13547).
T2 construct: purchased BPS Biosciences
The data set is described as above. The following applies: class I; mean ± SD (n = 2). It is filed as biochemical. The method, then:
as §1

Data set [3] deals with Ac-Histone H3. Put plainly: Western blot of acetylation status in SH-SY5Y cells. It is filed as cell-based, human. To be noted: 24 h, 0.5 to 5 μM. Here is the method:
(§2) Cells were seeded in 100 mm culture dishes (1 × 10^6 cells/dish), and allowed to attach overnight. Inhibitors were added at the concentrations as indicated and the cells were incubated for an additional 24 hours. For comparison, cells were also incubated with DMSO (0.5%) for 24 hours. Cells were harvested in ice-cold lysis buffer (23 mM Tris-HCl pH 7.6, 130 mM NaCl, 1% NP-40, 1% sodium deoxycholate, 0.1% SDS), and 30 µg of lysate per lane was separated by SDS-PAGE and followed by transferring to a PVDF membrane (Bio-Rad). The membrane was blocked with 5% skim milk in TBST, and then incubated with the corresponding antibody (Ac-α-tubulin, α-tubulin, Ac-Histone H3, Histone H3 or β-actin). After binding of an appropriate secondary antibody coupled to horseradish peroxidase, proteins were visualized by ECL chemiluminescence according to the instructions of the manufacturer (GE healthcare, USA).

In data set [4] the test system is Ac-α-tubulin. The data set is described as above. The data set is classed as cell-based, human. The following applies: 24 h, 0.5 to 5 μM. Here is the method:
as §2

The subject of data set [5] is SH-SY5Y cells. Put plainly: Cell proliferation (anti-proliferation) assay, MTS. It is filed as cell-based, human. The method, then: SH-SY5Y cells were grown in DMEM with L-glutamin supplemented with streptomycin ([…]), penicillin (100 units/mL), and 10% fetal bovine serum (FBS). Cells were grown to confluence in a humidified atmosphere (37 °C, 5% CO2).
SH-SY5Y cells (1.5 × 10^3 cells/well) were seeded in a clear 96-well plate, the medium volume was brought to 100 µL, and the cells were allowed to attach overnight. The next day, various concentrations of compounds or DMSO were added to the wells. Cells were then incubated at 37 °C for 24, 48 and 72 h. Cell viability was determined using the Promega Cell Titer 96 Aqueous One Solution cell proliferation assay. Absorbance at 490 nm was read on Tecan Infinite F200 Pro plate reader, and values were expressed as percent of absorbance from cells incubated in DMSO alone.

A short description of data set [6]: PAMPA-BBB assay. The data set is classed as in vitro ADME. Here is the method:
BBB-PAMPA was conducted by manufacturer’s instruction (pION Inc, MA, USA). […] Transmembrane side to donor part was coated with BBB lipid solution and add 200 μL acceptor buffer in upper part of PAMPA sandwich plate.

Data set [7] has as its system SH-SY5Y cells. Put plainly: Soft agar colony formation assay. The data set is classed as cell-based, human. The following applies: 3 weeks, 3 μM. Here is the method:
Cells (10^4 cells/well) were seeded in 6 well plate with 1.2% agar. After 12 h incubation, cells were treated with the indicated concentrations of compound 9b or DMSO at 37 °C in 5% humidified CO2 for 3 weeks with continuously changing medium every week. After medium was thrown away, colonies were stained with 0.05% crystal violet for 10 min.

T2 sequence (Q13547 whole entry): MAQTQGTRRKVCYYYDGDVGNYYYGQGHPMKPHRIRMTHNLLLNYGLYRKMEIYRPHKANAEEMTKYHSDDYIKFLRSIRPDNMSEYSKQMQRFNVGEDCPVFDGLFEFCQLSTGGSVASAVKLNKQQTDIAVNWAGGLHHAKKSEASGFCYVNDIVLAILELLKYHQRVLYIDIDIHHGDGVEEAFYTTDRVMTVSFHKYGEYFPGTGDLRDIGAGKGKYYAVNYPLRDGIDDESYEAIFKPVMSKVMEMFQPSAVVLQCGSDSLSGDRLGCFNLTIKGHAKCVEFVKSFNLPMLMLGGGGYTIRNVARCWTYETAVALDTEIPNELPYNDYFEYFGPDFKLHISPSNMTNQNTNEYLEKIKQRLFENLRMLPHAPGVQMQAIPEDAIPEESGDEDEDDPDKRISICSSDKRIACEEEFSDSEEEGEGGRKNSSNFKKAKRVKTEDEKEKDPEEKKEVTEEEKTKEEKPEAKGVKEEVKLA

Regarding `O=C(NO)c1ccc(-c2nc3ccccc3s2)cc1` [Compound 9b], the concentration for half-maximal inhibition (IC50) in data set [1] stood at 0.0959 ± 0.00078 µM; in data set [2] it was 0.0849 ± 0.0251 µM; in data set [5] (Homo sapiens, SH-SY5Y, Table 1 values IC50, read-out: anti-proliferative activity IC50 against SH-SY5Y cell line), 2.01 µM. The “acetylation status of Histone H3” value in data set [3] is “more efficiently promoted the acetylation of Histone H3 and α-tubulin than compound 9a; also recorded: significantly induced the accumulation of acetylated Histone H3”. The “acetylation status of α-tubulin” value in data set [4] was “more efficiently promoted the acetylation of Histone H3 and α-tubulin than compound 9a; also recorded: dose-dependently increased”. Besides, in data set [5] (5 μM, 72 hours), the “SH-SY5Y cell growth impaired” value is given as about 73%. In data set [5] (Homo sapiens, SH-SY5Y neuroblastoma cell line, 72 h, mean ± SD (n = 4)), this compound showed a 50% growth inhibitory concentration (GI50) of 2.01 ± 0.33 µM. In addition, the “Pe (10^−6 cm/s)” value in data set [6] (25 μM, pH 7.4, 4 h, 25 °C, mean ± SD, three independent experiments) is given as 27.15 10^−6 cm/s. Also, the “CNS +/− classification” value in data set [6] (PAMPA-BBB) is “CNS + (CNS + indicates (Pe > 10))”. The Papp at 4 h, 25 μM in data set [6] (PAMPA, 25 μM, pH 7.4, 4 h, 25 °C, mean ± SD, three independent experiments, read-out: Pe) came out at 27.1 ± 1.59 ×10⁻⁶ cm/s. The “anchorage-independent cell growth (colony formation)” value in data set [7] is recorded as “almost completely inhibited”.
